Measurements taken from patent publication US9040528B2, “Chemical compounds 542” (AstraZeneca AB, priority 2008, dated 2015).

Target: Escherichia coli DNA gyrase A/B tetramer (Escherichia coli (strain K12), UniProt P0AES4+P0AES6)
Experiment: DNA gyrase supercoiling activity fluorescence polarisation assay
Type: biochemical
Conditions: 5 nM enzyme, relaxed plasmid, 0.3 mM ATP, ambient temperature; read-out: E. coli DNA gyrase supercoiling IC50
In short: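 Supercoiling reactions quenched with 40 nM 5′-BODIPY-FL triplex-forming oligonucleotide probe in pH 3.5 NaCl/sodium acetate buffer; after 60 min, fluorescence anisotropy read (ex 485/em 535 nm). IC50 by nonlinear regression, normalised to 0.8% DMSO (100% activity) and 5 μM ciprofloxacin (0% activity).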

Structure (SMILES) | IC50
CSc1nccc(-c2noc3c(F)c4c(cc23)CC2(C(=O)NC(=O)NC2=O)[C@H]2[C@H](C)O[C@H](C)CN42)n1 [Example 168, (2R,4S,4aS)-11-fluoro-2,4-dimethyl-8-(2-(methylthio)pyrimidin-4-yl)-2,4,4a,6-tetrahydro-1H,1′H-spiro[isoxazolo[4,5-g][1,4]oxazino[4,3-a]quinoline-5,5′-pyrimidine]-2′,4′,6′(3′H)-trione] | 600 nM
Cc1ccc(-c2noc3c(Cl)c4c(cc23)CC2(C(=O)NC(=O)NC2=O)[C@H]2[C@H](C)O[C@H](C)CN42)cn1 (relative stereo) [Example 40, (2R,4S,4 aS)-rel-11-chloro-2,4-dimethyl-8-(6-methylpyridin-3-yl)-1,2,4,4a-tetrahydro-2′H,6H-spiro[1,4-oxazino[4,3-a][1,2]oxazolo[4,5-g]quinoline-5,5′-pyrimidine]-2′,4′,6′(1′H,3′H)-trione] | 1600 nM
C[C@@H]1CN2c3c(cc4c(-c5ccnc(NCCO)n5)noc4c3F)CC3(C(=O)NC(=O)NC3=O)[C@H]2[C@H](C)O1 [Example 171, (2R,4S,4aS)-11-fluoro-8-(2-(2-hydroxyethylamino)pyrimidin-4-yl)-2,4-dimethyl-2,4,4a,6-tetrahydro-1H,1′H-spiro[isoxazolo[4,5-g][1,4]oxazino[4,3-a]quinoline-5,5′-pyrimidine]-2′,4′,6′(3′H)-trione] | 300 nM
C[C@@H]1CN2c3c(cc4c(-c5cccnc5)noc4c3Cl)CC3(C(=O)NC(=O)NC3=O)[C@H]2[C@H](C)O1 (relative stereo) [Example 47, (2R,4S,4aS)-rel-11-chloro-2,4-dimethyl-8-(pyridin-3-yl)-1,2,4,4a-tetrahydro-2′H,6H-spiro[1,4-oxazino[4,3-a][1,2]oxazolo[4,5-g]quinoline-5,5′-pyrimidine]-2′,4′,6′(1′H,3′H)-trione] | 300 nM
C[C@@H]1CN2c3c(cc4c(C(F)F)noc4c3F)CC3(C(=O)NC(=O)NC3=O)[C@H]2[C@H](C)O1 (racemic) [Example 93, (2R,4S,4 aS)-rel-8-(difluoromethyl)-11-fluoro-2,4-dimethyl-2,4,4a,6-tetrahydro-1H,1′H-spiro[isoxazolo[4,5-g][1,4]oxazino[4,3-a]quinoline-5,5′-pyrimidine]-2′,4′,6′(3′H)-trione] | 700 nM
C[C@@H]1CN2c3c(cc4c(-c5ncccn5)noc4c3F)CC3(C(=O)NC(=O)NC3=O)[C@H]2[C@H](C)O1 (relative stereo) [Example 148, (2R,4S,4aS)-rel-11-fluoro-2,4-dimethyl-8-(pyrimidin-2-yl)-1,2,4,4a-tetrahydro-2′H,6H-spiro[1,4-oxazino[4,3-a][1,2]oxazolo[4,5-g]quinoline-5,5′-pyrimidine]-2′,4′,6′(1′H,3′H)-trione] | 900 nM
C[C@@H]1CN2c3c(cc4c(-c5cnccn5)noc4c3F)CC3(C(=O)NC(=O)NC3=O)[C@H]2[C@H](C)O1 [Example 165(b), (2R,4S,4aS)-11-fluoro-2,4-dimethyl-8-(pyrazin-2-yl)-2,4,4a,6-tetrahydro-1H,1′H-spiro[isoxazolo[4,5-g][1,4]oxazino[4,3-a]quinoline-5,5′-pyrimidine]-2′,4′,6′(3′H)-trione] | 200 nM
C[C@@H]1CN2c3c(cc4c(-c5ncccn5)noc4c3Cl)CC3(C(=O)NC(=O)NC3=O)[C@H]2[C@H](C)O1 (racemic) [Example 42, (2R,4S,4 aS)-rel-11-chloro-2,4-dimethyl-8-(pyrimidin-2-yl)-1,2,4,4a-tetrahydro-2′H,6H-spiro[1,4-oxazino[4,3-a][1,2]oxazolo[4,5-g]quinoline-5,5′-pyrimidine]-2′,4′,6′(1′H,3′H)-trione] | 1200 nM
C[C@@H]1CN2c3c(cc4c(-c5ccnc(N)n5)noc4c3F)CC3(C(=O)NC(=O)NC3=O)[C@H]2[C@H](C)O1 [Example 174, (2R,4S,4aS)-8-(2-aminopyrimidin-4-yl)-11-fluoro-2,4-dimethyl-2,4,4a,6-tetrahydro-1H,1′H-spiro[isoxazolo[4,5-g][1,4]oxazino[4,3-a]quinoline-5,5′-pyrimidine]-2′,4′,6′(3′H)-trione] | 500 nM
C[C@@H]1CN2c3c(cc4c(-c5ncc(C(=O)N(C)C)s5)noc4c3F)CC3(C(=O)NC(=O)NC3=O)[C@H]2[C@H](C)O1 (relative stereo) [Example 87, 2-[(2R,4S,4aS)-rel-11-fluoro-2,4-dimethyl-2′,4′,6′-trioxo-1,1′,2,3′,4,4′,4a,6′-octahydro-2′H,6H-spiro[1,4-oxazino[4,3-a][1,2]oxazolo[4,5-g]quinoline-5,5′-pyrimidin]-8-yl]-N,N-dimethyl-1,3-thiazole-5-carboxamide] | 6700 nM
CCNC(=O)c1noc2c(F)c3c(cc12)CC1(C(=O)NC(=O)NC1=O)[C@H]1[C@H](C)O[C@H](C)CN31 (racemic) [Example 138, (2R,4 S,4 aS)-rel-N-ethyl-11-fluoro-2,4-dimethyl-2′,4′,6′-trioxo-2,2′,3′,4,4a,4′,6,6′-octahydro-1H,1′H-spiro[isoxazolo[4,5-g][1,4]oxazino[4,3-a]quinoline-5,5′-pyrimidine]-8-carboxamide] | 1700 nM
C[C@@H]1CN2c3c(cc4c(NCc5ccccn5)noc4c3F)CC3(C(=O)NC(=O)NC3=O)[C@H]2[C@H](C)O1 (racemic) [Example 14, (2R,4 S,4aS)-rel-11-fluoro-2,4-dimethyl-8-[(pyridin-2-ylmethyl)amino]-1,2,4,4a-tetrahydro-2′H,6H-spiro[1,4-oxazino[4,3-a][1,2]oxazolo[4,5-g]quinoline-5,5′-pyrimidine]-2′,4′,6′(1′H,3′H)-trione] | 2000 nM
C[C@@H]1CN2c3c(nc4c(-c5ccncc5)noc4c3Cl)CC3(C(=O)NC(=O)NC3=O)[C@H]2[C@H](C)O1 (relative stereo) [Example 108, (2R,4S,4aS)-rel-11-chloro-2,4-dimethyl-8-(pyridyin-4-yl)-2,4,4a,6-tetrahydro-1H,1′H-spiro[isoxazolo[4,5-g][1,4]oxazino[4,3-a][1,5]naphthyridine-5,5′-pyrimidine]-2′,4′,6′(3′H)-trione] | 800 nM
C[C@@H]1CN2c3c(cc4c(-n5cnc(C#N)n5)noc4c3F)CC3(C(=O)NC(=O)NC3=O)[C@H]2[C@H](C)O1 (relative stereo) [Example 55, 1-[(2R,4S,4aS)-rel-11-fluoro-2,4-dimethyl-2′,4′,6′-trioxo-1,1′,2,3′,4,4′,4a,6′-octahydro-2′H,6H-spiro[1,4-oxazino[4,3-a][1,2]oxazolo[4,5-g]quinoline-5,5′-pyrimidin]-8-yl]-1H-1,2,4-triazole-3-carbonitrile] | 2600 nM
C[C@@H]1CN2c3c(cc4c(-c5ncccn5)noc4c3F)CC3(C(=O)NC(=O)NC3=O)[C@H]2[C@H](C)O1 [Example 148(b), (2R,4S,4aS)-11-fluoro-2,4-dimethyl-8-(pyrimidin-2-yl)-2,4,4a,6-tetrahydro-1H,1′H-spiro[isoxazolo[4,5-g][1,4]oxazino[4,3-a]quinoline-5,5′-pyrimidine]-2′,4′,6′(3′H)-trione] | 400 nM
CCNC(=O)c1noc2c(Cl)c3c(nc12)CC1(C(=O)NC(=O)NC1=O)[C@H]1[C@H](C)O[C@H](C)CN31 (relative stereo) [Example 126, (2R,4S,4aS)-rel-11-chloro-N-ethyl-2,4-dimethyl-2′,4′,6′-trioxo-2,2′,3′,4,4a,4′,6,6′-octahydro-1H,1′H-spiro[isoxazolo[4,5-g][1,4]oxazino[4,3-a][1,5]naphthyridine-5,5′-pyrimidine]-8-carboxamide] | 500 nM
C[C@@H]1CN2c3c(cc4c(-c5cnccn5)noc4c3Cl)CC3(C(=O)NC(=O)NC3=O)[C@H]2[C@H](C)O1 (racemic) [Example 120, (2R,4 S,4 aS)-rel-11-chloro-2,4-dimethyl-8-(pyrazin-2-yl)-2,4,4a,6-tetrahydro-1H,1′H-spiro[isoxazolo[4,5-g][1,4]oxazino[4,3-a]quinoline-5,5′-pyrimidine]-2′,4′,6′(3′H)-trione] | 200 nM
C[C@@H]1CN2c3c(cc4c(OCc5ccccc5)noc4c3F)CC3(C(=O)NC(=O)NC3=O)[C@H]2[C@H](C)O1 (relative stereo) [Example 52, (2R,4S,4aS)-rel-8-(benzyloxy)-11-fluoro-2,4-dimethyl-1,2,4,4a-tetrahydro-2′H,6H-spiro[1,4-oxazino[4,3-a][1,2]oxazolo[4,5-g]quinoline-5,5′-pyrimidine]-2′,4′,6′(1′H,3′H)-trione] | 2400 nM
C[C@@H]1CN2c3c(cc4c(-n5cnc(C(F)(F)F)c5)noc4c3F)CC3(C(=O)NC(=O)NC3=O)[C@H]2[C@H](C)O1 (relative stereo) [Example 59, (2R,4S,4aS)-rel-11-fluoro-2,4-dimethyl-8-[4-(trifluoromethyl)-1H-imidazol-1-yl]-1,2,4,4a-tetrahydro-2′H,6H-spiro[1,4-oxazino[4,3-a][1,2]oxazolo[4,5-g]quinoline-5,5′-pyrimidine]-2′,4′,6′(1′H,3′H)-trione] | 6600 nM
C[C@@H]1CN2c3c(cc4c(C(=O)NC(C)(C)C)noc4c3F)CC3(C(=O)NC(=O)NC3=O)[C@H]2[C@H](C)O1 (relative stereo) [Example 144, (2R,4S,4aS)-rel-N-tert-butyl-11-fluoro-2,4-dimethyl-2′,4′,6′-trioxo-2,2′,3′,4,4a,4′,6,6′-octahydro-1H,1′H-spiro[isoxazolo[4,5-g][1,4]oxazino[4,3-a]quinoline-5,5′-pyrimidine]-8-carboxamide] | 2900 nM
C[C@@H]1CN2c3c(cc4c(-c5nc(C(=O)N(C)C)cs5)noc4c3F)CC3(C(=O)NC(=O)NC3=O)[C@H]2[C@H](C)O1 (racemic) [Example 86, 2-[(2R,4S,4 aS)-rel-11-fluoro-2,4-dimethyl-2′,4′,6′-trioxo-1,1′,2,3′,4,4′,4a,6′-octahydro-2′H,6H-spiro[1,4-oxazino[4,3-a][1,2]oxazolo[4,5-g]quinoline-5,5′-pyrimidin]-8-yl]-N,N-dimethyl-1,3-thiazole-4-carboxamide] | 5000 nM
